Values quoted from earlier work as cited in patent publication US20250214981A1, “COMPOUND AND APPLICATION THEREOF IN PREPARATION OF MEDICINE FOR TREATING ENTEROVIRUS-RELATED DISEASES” (priority 2022, published 2025).

Experiments:
[1] = test system: human rhinovirus serotypes
[2] = in vivo
[3] = test system: mammalian cysteine and serine proteases, including cathepsin B, elastase, chymotrypsin, trypsin, thrombin, and calpain

CCOC(=O)/C=C/[C@H](C[C@@H]1CCNC1=O)NC(=O)[C@@H](CC(=O)[C@@H](NC(=O)c1cc(C)on1)C(C)C)Cc1ccc(F)cc1 [AG7088]
antiviral activity against a variety of human rhinovirus serotypes [1]: significant antiviral activity | bioavailability [2]: low bioavailability | inhibitory activity against mammalian cysteine and serine proteases [3]: negligible inhibitory activity
